# Laboratory results as given in US20060074061A1, “Formulations of glucocorticoids to treat pathologic ocular angiogenesis” (priority 2003, published 2006).
# Experiment: Topical anecortave acetate in patients with glucocorticoid induced ocular hypertension (IOP)
# Format: in vivo, human
# Conditions: patients (n=15) with glucocorticoid induced ocular hypertension; 1% eye drops topically three times per day for up to 12 weeks; glucocorticoid medication continued; IOP before treatment 29 mm Hg; significantly reduced
# Experimental: Patients (η=15) with documented glucocorticoid induced ocular hypertension were treated topically with 1% anecortave acetate eye drops three times per day for up to 12 weeks. The patients continued to receive their glucocorticoid medication.
compound,measurement,value
"CC(=O)OCC(=O)[C@@]1(O)CC[C@H]2[C@@H]3CCC4=CC(=O)CC[C@]4(C)C3=CC[C@@]21C [anecortave acetate, 4,9(11)-pregnadien-17α,21-diol-3,20dione-21-acetate]",IOP after anecortave acetate treatment,19-22 mm Hg
